# Experiments:
# human TGR5 = biological target: T1, human TGR5 (Homo sapiens, UniProt Q8TDU6); assay: Cell-based TGR5 assay, HEK293 cells stably expressing human TGR5, cAMP by HTRF; settings: HEK293 cells stably expressing human TGR5, 30 min at 37 C, 0.05 nM to 10 μM, read-out: pEC50 Human TGR5 (converted)
# T1 construct: expressed in transfected cells
# T1 sequence (Q8TDU6 1-330): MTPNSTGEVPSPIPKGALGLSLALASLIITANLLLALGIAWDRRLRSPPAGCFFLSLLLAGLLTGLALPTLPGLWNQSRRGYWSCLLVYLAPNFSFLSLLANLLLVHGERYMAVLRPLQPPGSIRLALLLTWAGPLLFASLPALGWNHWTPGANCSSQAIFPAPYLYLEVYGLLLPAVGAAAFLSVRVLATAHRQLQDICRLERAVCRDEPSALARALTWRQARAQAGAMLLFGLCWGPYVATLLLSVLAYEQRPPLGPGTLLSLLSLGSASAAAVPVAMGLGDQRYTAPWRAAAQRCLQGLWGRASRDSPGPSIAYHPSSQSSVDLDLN
# How it was run: (§1)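 cAMP HTRF read-out, converted to concentration via standard curve, after a 30 min, 37 °C compound exposure in HBSS with 10 mM HEPES pH 7.4 and 0.5 mM IBMX, compounds serially diluted 3-fold from 10 mM DMSO stock then 100-fold. Cells: stable human TGR5 HEK293, or NCI-H716 expressing TGR5 endogenously.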
# [1] = biological target: T2, endogenously expressed TGR5 in NCI H716 (Homo sapiens, UniProt Q8TDU6); assay: Cell-based TGR5 assay, NCI-H716 cells endogenously expressing human TGR5, cAMP by HTRF; settings: 30 min at 37 C, 22 nM to 50 μM, read-out: pEC50 endogenously expressed TGR5 in NCI H716 (converted)
# T2 construct: human caecum carcinoma cell line NCI-H716 which endogenously expresses human TGR5; endogenous in cells; host or cells: NCI-H716
# T2 sequence (Q8TDU6 1-330): T1 sequence (Q8TDU6 1-330)
# How it was run: as §1
# total GLP-1 = assay: In vivo GLP-1 secretion, plasma total GLP-1 8 h post dose; settings: Mus musculus, C57BL/6 male mice, food removed, plasma total GLP-1 eight hours after dosing, read-out: GLP-1 fold change over vehicle, Mean
# Source text: (§2) Eight hours later, each mouse was heavily anesthetized with isoflurane, the peritoneal cavity was opened and the gallbladder, with its entire contents, was carefully excised and weighed. Blood was collected from the left ventricle of the heart and processed to plasma in EDTA-coated tubes containing aprotinin and DPPIV inhibitor for measurement of total GLP-1 (K150FCC; Meso Scales Discovery, Gaithersburg Md.).
# C57BL/6 male mice [2] = assay: In vivo gallbladder measurement (weight) 8 h post dose; settings: 30 mg/kg
# Source text: as §2
# [3] = Compound concentration in gall bladder, LC-MS/MS, 8 h post dose; format: in vivo; settings: 30 mg/kg; for Number of Mice with Gallbladder Concentration < LLOQ: mice below LLOQ / mice in group; for concentration at 8 h: male, C57BL/6, mouse, with contents, mice, gallbladder homogenate, read-out: Mean Example Gallbladder Concentration
# How it was run: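 Gallbladder with its contents excised from isoflurane-anesthetized mice 8 h after dosing and homogenized in water. Homogenate diluted 1:5, precipitated with acetonitrile and measured by LC-MS/MS. Levels interpolated from per-compound standard curves in vehicle-treated gallbladder homogenate.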
# [4] = Compound plasma concentration, LC-MS/MS, 8 h post dose; format: in vivo; settings: 30 mg/kg; for Number of Mice with Plasma Concentration < LLOQ: mice below LLOQ / mice in group; for concentration at 8 h: male, C57BL/6, mouse, mice, plasma, read-out: Mean Example Plasma Concentration
# How it was run: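 Blood was taken from the left ventricle 8 h after dosing, under isoflurane anesthesia, into EDTA tubes containing aprotinin and DPPIV inhibitor. Plasma was protein-precipitated with acetonitrile containing an internal standard, and supernatants were analyzed by LC-MS/MS against a plasma standard curve.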
# human IBAT = biological target: T3, human IBAT (Homo sapiens, UniProt Q12908); assay: IBAT counter screen, [3H]taurocholic acid uptake in IBAT-transfected HEK293 cells; format: cell-based; settings: read-out: pEC50 human IBAT (converted)
# T3 construct: expressed in transfected cells; host or cells: HEK293
# T3 sequence (Q12908 1-348): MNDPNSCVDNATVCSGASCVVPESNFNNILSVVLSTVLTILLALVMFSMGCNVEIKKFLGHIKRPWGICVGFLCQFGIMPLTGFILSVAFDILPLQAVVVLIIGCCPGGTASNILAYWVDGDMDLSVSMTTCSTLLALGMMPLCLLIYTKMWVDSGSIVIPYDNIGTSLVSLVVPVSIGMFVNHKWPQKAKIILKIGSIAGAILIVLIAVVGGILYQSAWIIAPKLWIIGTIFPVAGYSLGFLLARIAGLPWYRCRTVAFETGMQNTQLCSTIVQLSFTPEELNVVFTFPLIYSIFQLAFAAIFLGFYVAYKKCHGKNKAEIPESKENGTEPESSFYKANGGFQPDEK
# Procedure: Following a 40-min incubation, the solution was removed, and the cells were washed twice with uptake buffer. Cells were lysed by addition of 20 μL 0.1% Tween 80 followed by 100 μL scintillation fluid and counted using a TopCount (Perkin Elmer).
# human FXR = biological target: T4, human FXR (Homo sapiens, UniProt Q96RI1); assay: FXR counter screen, cell-based luciferase reporter assay; settings: cells expressing human FXR and FXR-responsive luciferase reporter, 0.4 to 50 μM test compound; read-out: pEC50 human FXR (converted)
# T4 construct: purchased Indigo Biosciences (State College, Pa.)
# T4 sequence (Q96RI1 1-486): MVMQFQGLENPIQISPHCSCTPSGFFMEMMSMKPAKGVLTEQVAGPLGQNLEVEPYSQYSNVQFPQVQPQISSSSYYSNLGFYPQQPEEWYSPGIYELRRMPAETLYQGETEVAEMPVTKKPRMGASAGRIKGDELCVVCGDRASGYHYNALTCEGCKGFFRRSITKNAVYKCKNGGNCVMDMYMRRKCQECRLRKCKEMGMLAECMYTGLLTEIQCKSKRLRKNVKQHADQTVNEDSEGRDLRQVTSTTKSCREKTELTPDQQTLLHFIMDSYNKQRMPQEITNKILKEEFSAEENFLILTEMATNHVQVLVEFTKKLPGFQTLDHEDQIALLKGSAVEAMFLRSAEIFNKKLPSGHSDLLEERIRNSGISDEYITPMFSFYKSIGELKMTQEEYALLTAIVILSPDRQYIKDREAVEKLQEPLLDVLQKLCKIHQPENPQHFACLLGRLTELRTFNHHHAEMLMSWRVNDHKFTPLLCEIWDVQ
# Procedure: FXR: The ability of test compounds to activate FXR (NR1H4) was measured using a cell-based assay kit obtained from Indigo Biosciences (State College, Pa.).
# [5] = Compound concentration in gallbladder 16 hours post dose; format: in vivo; settings: 30 mg/kg; for Number of Mice with Gallbladder Concentration < LLOQ: mice below LLOQ / mice in group; for concentration at 16 h: male, C57BL/6, mouse, gallbladder (homogenate, with contents), mice, gallbladder, read-out: Mean Example Gallbladder Concentration
# Procedure: Compound concentrations in the gall bladder were determined as follows: each mouse was heavily anesthetized with isoflurane, the peritoneal cavity was opened and the gallbladder, with its entire contents, was carefully excised. After harvest, gall bladders were homogenized in 100 μL water using a micro-homogenizer. Samples of homogenate were diluted 1:5 in water and precipitated with three volumes of neat acetonitrile. After centrifugation, supernatants were analyzed by LC-MS/MS. The level of test compound present in gall bladder samples was interpolated from a standard curve for each individual compound prepared in a matrix of gallbladder homogenate from vehicle treated animals.
# C57BL/6 male mice on regular chow had food removed (to prevent gallbladder emptying) and were dosed in the early evening with vehicle (2% DMSO in 0.4% hydroxypropyl methylcellulose) or 30 mg/kg of examples 176, 177, or 178 formulated in vehicle. The next morning (˜16 h post-dose), mice were heavily anesthetized with isoflurane, the peritoneal cavity was opened and gallbladders (with contents) were carefully excised and weighed. Compound levels in gallbladder were analyzed as described in Example 293.
# C57BL/6 male mice [6] = assay: In vivo gallbladder measurement (weight) 16 hours post-dose; settings: 30 mg/kg
# CD-1 female mice = assay: In vivo measurement of CCK-mediated gallbladder emptying (egg yolk); settings: fasted ~16 h, oral 30 mg/kg (devazepide 1 mg/kg) 1 h before egg yolk, gallbladder weighed 15 min later (FIG. 1)
# Procedure: CD-1 female mice on regular chow had food removed (to prevent gallbladder emptying) in the late evening. The next morning (˜16 h later), groups of mice were dosed orally with vehicle (10% hydroxypropyl-β-cyclodextrin; 2 groups), devazepide in water (1 mg/kg; […]. One hour later, 1 group of vehicle-treated mice was dosed orally with saline, and all other groups were dosed orally with lyophilized egg yolk [0.75 mL; 30% (wt/vol) reconstituted in saline for induction of CCK-mediated gallbladder emptying]. Fifteen minutes later, mice were heavily anesthetized with isoflurane, the peritoneal cavity was opened and gallbladders (with contents) were carefully excised and weighed.
# total (t) GLP-1 = assay: Time course of in vivo induction of total GLP-1; settings: C57BL/6 male mice, 30 mg/kg oral, 4, 8, 12 and 16 h
# Procedure: (§3) C57BL/6 male mice on regular chow received an oral dose of vehicle (2% DMSO in 0.4% hydroxypropyl methylcellulose) or examples 176 or 178 (at 30 mg/kg). Food was removed prior to/or at the time of dosing: 4, 8, 12, and 16 h groups fasted for 7, 8, 12 and 16 h, respectively. At the appropriate time after dosing, mice were heavily anesthetized with isoflurane, and blood was collected from the left ventricle of the heart and processed to plasma as described in Example 293 for measurement of total (t) GLP-1 and, additionally, total (t)PYY (N45ZA-1; Meso Scales Discovery, Gaithersburg Md.).
# total (t)PYY = assay: Time course of in vivo induction of total PYY; settings: C57BL/6 male mice; for induction of tPYY levels following a single oral dose: 30 mg/kg oral, 4, 8, 12 and 16 h
# Procedure: as §3
SMILES,EC50 (human TGR5) [nM],EC50 [1] [nM],response vs control in vivo at 30 mg/kg (total GLP-1) [%],"Gallbladder weight/body weight fold change over vehicle, Significance (C57BL/6 male mice [2]; 8 h, vs. vehicle, one-way ANOVA, Dunnett's test)","Gallbladder weight/body weight fold change over vehicle, Mean (C57BL/6 male mice [2]; food removed, eight hours after dosing) [fold change over vehicle]",Number of Mice with Gallbladder Concentration < LLOQ [3],concentration at 8 h [3] [nM],Number of Mice with Plasma Concentration < LLOQ [4],concentration at 8 h [4] [ng/mL],EC50 (human IBAT) [nM],EC50 (human FXR) [nM],Number of Mice with Gallbladder Concentration < LLOQ [5],concentration at 16 h [5] [nM],effect on gallbladder weight/body weight (C57BL/6 male mice [6]),inhibition of CCK-mediated gallbladder emptying (CD-1 female mice),induction of tGLP-1 levels following a single oral dose (total (t) GLP-1),induction of tPYY levels following a single oral dose (total (t)PYY),"times after dosing at which tPYY levels were significantly elevated (total (t)PYY; 30 mg/kg oral, tested 4, 8, 12 and 16 h (FIG. 2, panel B)) [h]"
"O=C(N1CCN(C2CC2)c2ccccc21)C1(NCc2cc(Cl)ccc2Cl)CC1 [Example 26, (4-cyclopropyl-3,4-dihydroquinoxalin-1(2H)-yl)(1-((2,5-dichlorobenzyl)amino)cyclopropyl)methanone]",< 100,< 100,160,* (* p < 0.05 vs. vehicle; One-way ANOVA followed by Dunnett's test),1.6,0/8,30,0/8,9.1,> 25100,> 50100,,,,,,,
"O=C(O)CCc1cc(Cl)c(CNC2(C(=O)N3CCN(C4CC4)c4ccccc43)CC2)cc1Cl [Example 83, 3-(2,5-dichloro-4-(((1-(4-cyclopropyl-1,2,3,4-tetrahydroquinoxaline-1-carbonyl)cyclopropyl)amino)methyl)phenyl)propanoic acid]",126 to 1000,1260 to 50100,,,,,,,,,,0/6,30,,,,,
"O=C(N1CCCc2cccnc21)C1(OCc2cc(Cl)ccc2Cl)CC1 [Example 85, 1-([1-[(2,5-dichlorophenyl)methoxy]cyclopropyl]carbonyl)-1,2,3,4-tetrahydro-1,8-naphthyridine]",126 to 1000,1260 to 50100,,,,,,,,,,0/6,200,,,,,
"O=C(NC[C@H](O)[C@@H](O)[C@H](O)[C@H](O)CO)c1ccc(COc2cc(Cl)c(CN3CSC[C@H]3C(=O)N3CCN(C4CC4)c4ccccc43)cc2Cl)cc1 [Example 176, 4-(2,5-dichloro-4-{[(4R)-4-[(4-cyclopropyl-1,2,3,4-tetrahydroquinoxalin-1-yl)carbonyl]-1,3-thiazolidin-3-yl]methyl}phenoxymethyl)-N-[(2S,3R,4R,5R)-2,3,4,5,6-pentahydroxyhexyl]benzamide]",,,,,,0/8,100,8/8,< 2,,,,,no significant effect,did not inhibit,sustained induction,sustained induction,
"O=C(CCCCc1cc(Cl)c(CN2CSC[C@H]2C(=O)N2CCN(C3CC3)c3ccccc32)cc1Cl)NC[C@H](O)[C@@H](O)[C@H](O)[C@H](O)CO [Example 178, 5-(2,5-dichloro-4-(((R)-4-(4-cyclopropyl-1,2,3,4-tetrahydroquinoxaline-1-carbonyl)thiazolidin-3-yl)methyl)phenyl)-N-((2S,3R,4R,5R)-2,3,4,5,6-pentahydroxyhexyl)pentanamide]",,,,,,0/8,,8/8,< 1,> 25100,> 50100,,,no significant effect,did not inhibit,sustained induction,sustained induction,8
"CN1C(=O)[C@@H](NC(=O)c2cc3ccccc3[nH]2)N=C(c2ccccc2)c2ccccc21 [devazepide, reference compound]",,,,,,,,,,,,,,,did,,,

# From US20150148311A1, “NON-SYSTEMIC TGR5 AGONISTS” (Ardelyx, Inc., priority 2011, published 2015)
